Patent US12594276B2, “Inhibitors of human immunodeficiency virus replication” (ViiV Healthcare UK (No.5) Limited, priority 2024, dated 2026)
Read-outs that look alike come from different tables or passages of the source.

Tests used:
[1] = Compound cytotoxicity, XTT-based colorimetric assay; assay type: cell-based; settings: human
In short: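 Uninfected MT2 cells, antiviral-assay protocol without virus; XTT colorimetric readout day 4; CC50 reported.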

[2] = system: recombinant NL4-3 virus (nef section replaced with Renilla luciferase gene) in MT-2 cells; test: HIV cell culture assay (antiviral activity, luciferase readout); assay type: cell-based; settings: Renilla, NL43, MT-2 cells infected for 4-5 days with recombinant NL4-3 Renilla luciferase virus
In short: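 Reporter virus is produced in 293T cells and its titer set in MT-2 cells by luciferase activity. MT-2 cells are then infected in the presence of serially diluted compound for 4-5 days. Luciferase is quantified and EC50 fitted to the median effect equation.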

[3] = uninfected MT2 cells, day 4, XTT, read-out: CC50

CS(=O)(=O)Nc1nn(CCN2[C@@H]3CC[C@H]2COC3)c2c(-n3c([C@H](Cc4cc(F)cc(F)c4)NC(=O)Cn4nc(C5CC5)c5c4C[C@@H]4C[C@H]54)nc4nc(C5CCC(F)(F)CC5)ccc4c3=O)ccc(Cl)c12 (atropisomer, axis not shown; (P)) [Example 381, N-[(1S)-1-[(3P)-3-(4-chloro-3-methanesulfonamido-1-{2-[(1R,5S)-3-oxa-8-azabicyclo[3.2.1]octan-8-yl]ethyl}-1H-indazol-7-yl)-7-(4,4-difluorocyclohexyl)-4-oxo-3H,4H-pyrido[2,3-d]pyrimidin-2-yl]-2-(3,5-difluorophenyl)ethyl]-2-[(2S,4S)-9-cyclopropyl-7,8-diazatricyclo[4.3.0.0^2,^4]nona-1(6),8-dien-7-yl]acetamide]
CC50 at 4 days [1]: > 20 nM | EC50 [2]: 0.007 nM

Cc1cc(C2CCC(F)(F)CC2)nc2nc([C@H](Cc3cc(F)cc(F)c3)NC(=O)Cn3nc(C4CC4)c4c3C[C@@H]3C[C@H]43)n(-c3ccc(Cl)c4c(NS(C)(=O)=O)nn(CCN5C[C@@H](F)C[C@H](F)C5)c34)c(=O)c12 (atropisomer, axis not shown; (P)) [Example 444, N-[(1S)-1-[(3P)-3-(4-chloro-1-{2-[(3S,5S)-3,5-difluoropiperidin-1-yl]ethyl}-3-methanesulfonamido-1H-indazol-7-yl)-7-(4,4-difluorocyclohexyl)-5-methyl-4-oxo-3H,4H-pyrido[2,3-d]pyrimidin-2-yl]-2-(3,5-difluorophenyl)ethyl]-2-[(2S,4S)-9-cyclopropyl-7,8-diazatricyclo[4.3.0.0^2,^4]nona-1(6),8-dien-7-yl]acetamide]
CC50 at 4 days [1, 3]: > 20 nM | EC50 [2]: 0.009 nM

Cc1cc(C2CCC(F)(F)CC2)nc2nc([C@H](Cc3cc(F)cc(F)c3)NC(=O)Cn3nc(C4CC4)c4c3C[C@@H]3C[C@H]43)n(-c3ccc(Cl)c4c(NS(C)(=O)=O)nn(CC5(N6C[C@@H](C)O[C@@H](C)C6)CC5)c34)c(=O)c12 (relative stereo) [Example 691, N-[(1S)-1-[(3P)-3-[4-chloro-1-({1-[(2R,6S)-2,6-dimethylmorpholin-4-yl]cyclopropyl}methyl)-3-methanesulfonamido-1H-indazol-7-yl]-7-(4,4-difluorocyclohexyl)-5-methyl-4-oxo-3H,4H-pyrido[2,3-d]pyrimidin-2-yl]-2-(3,5-difluorophenyl)ethyl]-2-[(2R*,4R*)-9-cyclopropyl-7,8-diazatricyclo[4.3.0.0^2,^4]nona-1(6),8-dien-7-yl]acetamide]
CC50 at 4 days [1, 3]: > 20 nM | EC50 [2]: 0.007 nM

Cc1cc(C2(C)CCC(F)(F)CC2)nc2nc([C@H](Cc3cc(F)cc(F)c3)NC(=O)Cn3nc(C4CC4)c4c3C[C@@H]3C[C@H]43)n(-c3ccc(Cl)c4c(NS(C)(=O)=O)nn(CCN5CC(C)(C)OC(C)(C)C5)c34)c(=O)c12 (atropisomer, axis not shown; (P)) [Example 506, N-[(1S)-1-[(3P)-3-{4-chloro-3-methanesulfonamido-1-[2-(2,2,6,6-tetramethylmorpholin-4-yl)ethyl]-1H-indazol-7-yl}-7-(4,4-difluoro-1-methylcyclohexyl)-5-methyl-4-oxo-3H,4H-pyrido[2,3-d]pyrimidin-2-yl]-2-(3,5-difluorophenyl)ethyl]-2-[(2S,4S)-9-cyclopropyl-7,8-diazatricyclo[4.3.0.0^2,^4]nona-1(6),8-dien-7-yl]acetamide]
CC50 at 4 days [1, 3]: > 20 nM | EC50 [2]: 0.027 nM

Cc1cc(C2(F)CCC(F)(F)CC2)nc2nc([C@H](Cc3cc(F)cc(F)c3)NC(=O)Cn3nc(C(F)F)c4c3C(F)(F)[C@@H]3C[C@H]43)n(-c3ccc(Cl)c4c(NS(C)(=O)=O)nn(CCN5CCOCC5(C)C)c34)c(=O)c12 (atropisomer, axis not shown; (P)) [Example 579, N-[(1S)-1-[(3P)-3-{4-chloro-1-[2-(3,3-dimethylmorpholin-4-yl)ethyl]-3-methanesulfonamido-1H-indazol-7-yl}-5-methyl-4-oxo-7-(1,4,4-trifluorocyclohexyl)-3H,4H-pyrido[2,3-d]pyrimidin-2-yl]-2-(3,5-difluorophenyl)ethyl]-2-[(2S,4R)-9-(difluoromethyl)-5,5-difluoro-7,8-diazatricyclo[4.3.0.0^2,^4]nona-1(6),8-dien-7-yl]acetamide]
CC50 at 4 days [1, 3]: > 20 nM | EC50 [2]: 0.011 nM

COCCCn1nc(NS(C)(=O)=O)c2c(Cl)ccc(-n3c([C@H](Cc4cc(F)cc(F)c4)NC(=O)Cn4nc(C5CC5)c5c4C[C@@H]4C[C@H]54)nc4nc(C5CCC(F)(F)CC5)cc(CN5CC(F)(F)C5)c4c3=O)c21 (atropisomer, axis not shown; (P)) [Example 603, N-[(1S)-1-[(3P)-3-[4-chloro-3-methanesulfonamido-1-(3-methoxypropyl)-1H-indazol-7-yl]-5-[(3,3-difluoroazetidin-1-yl)methyl]-7-(4,4-difluorocyclohexyl)-4-oxo-3H,4H-pyrido[2,3-d]pyrimidin-2-yl]-2-(3,5-difluorophenyl)ethyl]-2-[(2S,4S)-9-cyclopropyl-7,8-diazatricyclo[4.3.0.0^2,^4]nona-1(6),8-dien-7-yl]acetamide]
CC50 at 4 days [1, 3]: > 20 nM | EC50 [2]: 0.004 nM

CS(=O)(=O)Nc1nn(CCN2CCC(F)(F)CC2)c2c(-n3c([C@H](Cc4cc(F)cc(F)c4)NC(=O)Cn4nc(C(F)F)c5c4C(F)(F)[C@@H]4C[C@H]54)nc4nc(C5CCC(F)(F)CC5)cc(C(F)F)c4c3=O)ccc(Cl)c12 (atropisomer, axis not shown; (P)) [Example 149, N-[(1S)-1-[(3P)-3-{4-chloro-1-[2-(4,4-difluoropiperidin-1-yl)ethyl]-3-methanesulfonamido-1H-indazol-7-yl}-7-(4,4-difluorocyclohexyl)-5-(difluoromethyl)-4-oxo-3H,4H-pyrido[2,3-d]pyrimidin-2-yl]-2-(3,5-difluorophenyl)ethyl]-2-[(2S,4R)-9-(difluoromethyl)-5,5-difluoro-7,8-diazatricyclo[4.3.0.0^2,^4]nona-1(6),8-dien-7-yl]acetamide]
CC50 at 4 days [1, 3]: > 50 nM | EC50 [2]: 0.018 nM

Cc1cc(C2CCC(F)(F)CC2)nc2nc([C@H](Cc3cc(F)cc(F)c3)NC(=O)Cn3nc(C(F)F)c4c3C(F)(F)[C@@H]3C[C@H]43)n(-c3ccc(Cl)c4c(NS(C)(=O)=O)nn(CCN5C[C@@H](C)OC(C)(C)C5)c34)c(=O)c12 (atropisomer, axis not shown; (P)) [Example 454, N-[(1S)-1-[(3P)-3-(4-chloro-3-methanesulfonamido-1-{2-[(6R)-2,2,6-trimethylmorpholin-4-yl]ethyl}-1H-indazol-7-yl)-7-(4,4-difluorocyclohexyl)-5-methyl-4-oxo-3H, 4H-pyrido[2,3-d]pyrimidin-2-yl]-2-(3,5-difluorophenyl)ethyl]-2-[(2S,4R)-9-(difluoromethyl)-5,5-difluoro-7,8-diazatricyclo[4.3.0.0^2,^4]nona-1(6),8-dien-7-yl]acetamide]
CC50 at 4 days [1, 3]: > 20 nM | EC50 [2]: 0.01 nM

CS(=O)(=O)Nc1nn(CCN2CCC(F)(F)CC2)c2c(-n3c([C@H](Cc4cc(F)cc(F)c4)NC(=O)Cn4nc(C(F)F)c5c4C(F)(F)[C@@H]4C[C@H]54)nc4nc(C5CCC(F)(F)CC5)ccc4c3=O)ccc(Cl)c12 (atropisomer, axis not shown; (P)) [Example 130, N-[(1S)-1-[(3P)-3-{4-chloro-1-[2-(4,4-difluoropiperidin-1-yl)ethyl]-3-methanesulfonamido-1H-indazol-7-yl}-7-(4,4-difluorocyclohexyl)-4-oxo-3H,4H-pyrido[2,3-d]pyrimidin-2-yl]-2-(3,5-difluorophenyl)ethyl]-2-[(2S,4R)-9-(difluoromethyl)-5,5-difluoro-7,8-diazatricyclo[4.3.0.0^2,^4]nona-1(6),8-dien-7-yl]acetamide]
CC50 at 4 days [1, 3]: > 50 nM | EC50 [2]: 0.013 nM

COCCCn1nc(NS(C)(=O)=O)c2c(Cl)ccc(-n3c([C@H](Cc4cc(F)cc(F)c4)NC(=O)Cn4nc(C(F)F)c5c4C(F)(F)[C@@H]4C[C@H]54)nc4nc(C5CCC(F)(F)CC5)cc(NCC5(C)CCOCC5)c4c3=O)c21 (atropisomer, axis not shown; (P)) [Example 485, N-[(1S)-1-[(3P)-3-[4-chloro-3-methanesulfonamido-1-(3-methoxypropyl)-1H-indazol-7-yl]-7-(4,4-difluorocyclohexyl)-5-{[(4-methyloxan-4-yl)methyl]amino}-4-oxo-3H,4H-pyrido[2,3-d]pyrimidin-2-yl]-2-(3,5-difluorophenyl)ethyl]-2-[(2S,4R)-9-(difluoromethyl)-5,5-difluoro-7,8-diazatricyclo[4.3.0.0^2,^4]nona-1(6),8-dien-7-yl]acetamide]
CC50 at 4 days [1, 3]: > 20 nM | EC50 [2]: 0.016 nM

Cc1cc(C2(F)CCC(F)(F)CC2)nc2nc([C@H](Cc3cc(F)cc(F)c3)NC(=O)Cn3nc(C4CC4)c4c3C[C@@H]3C[C@H]43)n(-c3ccc(Cl)c4c(NS(C)(=O)=O)nn(CCN5C[C@H](F)C[C@H](F)C5)c34)c(=O)c12 (atropisomer, axis not shown; (P)) [Example 12, N-[(1S)-1-[(3P)-3-(4-chloro-1-{2-[(3R,5S)-3,5-difluoropiperidin-1-yl]ethyl}-3-methanesulfonamido-1H-indazol-7-yl)-5-methyl-4-oxo-7-(1,4,4-trifluorocyclohexyl)-3H,4H-pyrido[2,3-d]pyrimidin-2-yl]-2-(3,5-difluorophenyl)ethyl]-2-[(2S,4S)-9-cyclopropyl-7,8-diazatricyclo[4.3.0.0^2,4]nona-1(6),8-dien-7-yl]acetamide]
CC50 at 4 days [1, 3]: > 20000 nM | EC50 [2]: 0.012 nM
